Data on 29 compounds can be found in patent US8188089B2, “Tylophorine analogs as antitumor agents” (The University of North Carolina at Chapel Hill, priority 2006, dated 2012).

In general, melting point refers to the temperature, or range, at which the solid turns liquid. A word on the IC50: it is the concentration at which inhibition is half-maximal. Lower therefore signals higher potency.

SMILES strings stand for the structures. Where a name gives a salt, the structure may show the parent alone.

For data set [1], the system named is human A549 lung cancer cell line. Kind of data set: Cell growth inhibition assay (SRB), Example 2, A549. The data set is classed as cell-based. The source says:
Cell Growth Inhibition Assay. The sulforhodamine B assay was used according to the procedures developed and validated at NCI. […] The values were interpolated from dose-response data.

Data set [2] relates to KB (nasopharyngeal). The experiment in a line: Cell growth inhibition assay (SRB), Example 2, KB. The data set is classed as cell-based, human. As to conditions: Table 6, 72-h continuous treatment. The source says:
(§1) Drug-Resistance Study. Twelve active compounds [including four hydrochloride salts (18b, 22b, 24b, 32b) of corresponding active free bases (18a, 22a, 24a, 32a)] were further screened against an extended panel of human tumor cell lines including DU-145 (prostate), ZR-751 (breast), KB (nasopharyngeal), and KB-VIN (multidug-resistant KB subline) in order to explore their antitumor spectra and drug-resistance profiles. Four compounds were used as reference compounds. Antofine is a positional isomer of tylophorine isolated from Asclepiadaceae by Dr. T. S. Wu in Taiwan (Wu, P. L. et al., Heterocycles 2002; 57:2401). […] Doxorubicin (Adriamycin), vincristine, and etoposide (VP-16, Vepesid®) are widely used anticancer agents for treating a range of solid tumors.
(§2) Cell Growth Inhibition Assay. The sulforhodamine B assay was used according to the procedures developed and validated at NCI. The in vitro anticancer activities are expressed as ED50 values, which is the test compound concentration (μM) that reduced the cell number by 50% after 72-h of continuous treatment. The values were interpolated from dose-response data. Each test was performed in triplicate with variation less than 5%. The ED50 values determined in each of independent tests varied less than 10%. Compound stock solutions were prepared in DMSO with the final solvent concentration ≦1% DMSO (v/v), a concentration without effect on cell replication. The cells were cultured at 37° C. in RPMI-1640 supplemented with 25 mM N-2-hydroxyethylpiperazine-N′-2-ethanesulfonic acid (HEPES), […], 10% (v/v) fetal bovine serum, and 100 μg/mL kanamycin in a humidified atmosphere containing 5% CO2.

Data set [3] concerns DU-145 (prostate). Kind of data set: Cell growth inhibition assay (SRB), Example 2, DU-145. As to conditions: Table 6, 72-h continuous treatment. It is filed as cell-based, human.
Text: as §1, §2

Data set [4] relates to ZR-751 (breast). The experiment in a line: Cell growth inhibition assay (SRB), Example 2, ZR-751. The data set is classed as cell-based, human. As to conditions: Table 6, 72-h continuous treatment.
Text: as §1, §2

For data set [5], the system named is KB-VIN (multidug-resistant KB subline). The experiment in a line: Cell growth inhibition assay (SRB), Example 2, KB-VIN. It is filed as cell-based, human. As to conditions: Table 6, 72-h continuous treatment.
Text: as §1, §2

Data set [6] concerns human A549 lung cancer cell line. Kind of data set: Cell growth inhibition assay (SRB), Example 1. Particulars: for IC50: 72 h, A549, SRB, 3 days exposure; for EC50: table footnotes of Example 1, A549. The data set is classed as cell-based. The source says:
Results and discussion. […] Etoposide (VP-16) was used as the reference compound.
Cell Growth Inhibition Assay. The human A549 lung cancer cell line was used for the cytotoxicity screening of PBT derivatives using the cell-based sulforhodamine B (SRB) microtitre plate assay. […] Duration of compound exposure was 3 days.

The mark [7] stands for this setting: Table 4, ED50, 72-h continuous treatment, NA = not active, read-out: A549 (μM), in vitro anticancer activity against A549 lung cancer cells.
Setting [8] is: Table 6, 72-h continuous treatment, read-out: EC50 (μM) A549.
Where [9] appears, read: Homo sapiens, Table 1, NA = Not Active.
[10] abbreviates: Homo sapiens, A549, 72 h, Table 4, ED50, 72-h continuous treatment, NA = not active, read-out: A549 (μM), in vitro anticancer activity against A549 lung cancer cells.
Setting [11] is: Homo sapiens, A549, 72 h, Table 6, 72-h continuous treatment, read-out: EC50 (μM) A549.

`CC(CCCCO)NCc1cc2cc3c(cc2c2cc(OCc4ccccc4)ccc12)OCO3` (stereo not shown) came in with a melting point of 175 to 177 °C.
In turn, `O=C(O)CCCCNCc1cc2cc3c(cc2c2cc(OCc4ccccc4)ccc12)OCO3` returned a melting point of 197 to 199 °C.
Still for that read-out and setting: the same measure for `COc1ccc2c(CNCCCCCC(=O)O)cc3cc4c(cc3c2c1)OCO4`: 167 to 169 °C; for `COc1ccc2c(CNCCCCCCCCCCC(=O)O)cc3cc4c(cc3c2c1)OCO4`: 146 to 148 °C.
Still for that read-out and setting: the same measure for `CCCCCC(CCCCCO)NCc1cc2cc3c(cc2c2cc(OC)ccc12)OCO3` (stereo not shown): 122 to 124 °C; for `COc1ccc2c(CNCCCCC(=O)O)cc3cc4c(cc3c2c1)OCO4`: 145 to 146 °C.
The same measure, in the same setting: the same measure for `COc1ccc2c(CNCCCCCO)cc3cc4c(cc3c2c1)OCO4`: 125 to 126 °C.
Turning to `COc1ccc2c(CNCCCCCC(=O)O)cc3cc(OC)c(OC)cc3c2c1`, the melting point was in the range of 133 to 134 °C.
As for `COc1ccc2c3c(c4cc(OC)c(OC)cc4c2c1)C[C@H]1CCCN1C3` [Antofine, reference compound], the EC50 in data set [1] (setting [7]) worked out at 0.008 µM; in data set [1] (setting [8]) it was 0.008 µM; in data set [2], 0.013 µM; in data set [3], 0.009 µM; in data set [4] it was 0.008 µM; in data set [5], 0.009 µM.
For the compound `O=C(O)c1cc2cc3c(cc2c2cc(OCc4ccccc4)ccc12)OCO3` [Compound 7a, 2,3-Methylenedioxy-6-benzyloxy-phenanthrene-9-carboxylic acid], the melting point fell in the range of 263 to 265 °C.
On the same count and under the same terms, the same measure for `COc1ccc2c(C(=O)O)cc3cc4c(cc3c2c1)OCO4` [Compound 7b, 2,3-Methylenedioxy-6-methoxy-phenanthrene-9-carboxylic acid]: 293 to 295 °C.
Consider `COc1ccc2c(C(=O)O)cc3cc(OC)c(OC)cc3c2c1` [Compound 7c, 2,3,6-Trimethoxyphenanthrene-9-carboxylic acid], for which the melting point was 241 to 243 °C.
Consider `COC(=O)CCCCCNC(=O)c1cc2cc3c(cc2c2cc(OCc4ccccc4)ccc12)OCO3` [Compound 10, Methyl N-(2,3-methylenedioxy-6-benzyloxy-phenanthr-9-ylcarbonyl)-6-aminohexanoate], for which, in data set [6] (setting [9]), the IC50 stood at 41200 nM.
Consider `O=C(O)CCCCCNC(=O)c1cc2cc3c(cc2c2cc(OCc4ccccc4)ccc12)OCO3` [Compound 11, N-(2,3-methylenedioxy-6-benzyloxy-phenanthr-9-ylcarbonyl)-6-aminohexanoic acid], for which the melting point lay within 198 to 200 °C. The compound also yielded a half-maximal inhibitory concentration (IC50) in data set [6] (setting [9]) of 41200 nM.
Turning to `O=C(O)CCCCCNCc1cc2cc3c(cc2c2cc(OCc4ccccc4)ccc12)OCO3` [Compound 12, N-(2,3-Methylenedioxy-6-benzyloxy-phenanthr-9-ylmethyl)-6-aminohexanoic acid], the melting point was 184 to 186 °C. Further, in data set [6] (setting [9]), the 50% inhibitory concentration (IC50) stood at 1600 nM.
Consider `O=C(O)[C@@H]1CCCN1Cc1cc2cc3c(cc2c2cc(OCc4ccccc4)ccc12)OCO3` [Compound 18, N-(2,3-Methylenedioxy-6-benzyloxy-phenanthr-9-ylmethyl)-L-proline], for which the melting point is 147 to 149 °C. Moreover, the half-maximal inhibitory concentration (IC50) in data set [6] (setting [9]) came to 4400 nM. The EC50 in data set [6] (Homo sapiens) came to 4400 nM.
For `COc1ccc2c(CN3CCCC[C@H]3CO)cc3cc4c(cc3c2c1)OCO4` [Compound 18a, N-(2,3-Methylenedioxy-6-methoxy-phenanthr-9-ylmethyl)-L-2-piperidinemethanol], the EC50 in data set [1] (setting [8]) was found to be 0.2 µM; in data set [3], 0.21 µM; in data set [4] it was 0.1 µM.
For the compound `COc1ccc2c(CN3CCCC[C@H]3CO)cc3cc4c(cc3c2c1)OCO4` [Compound 18b, N-(2,3-Methylenedioxy-6-methoxy-phenanthr-9-ylmethyl)-L-2-piperidinemethanol hydrochloride], the EC50 in data set [1] (setting [8]) worked out at 0.16 µM; in data set [2] it was 0.12 µM; in data set [3], 0.09 µM; in data set [4], 0.08 µM; in data set [5], 0.09 µM.
`O=C(O)[C@@H]1CCCN1C(=O)c1cc2cc3c(cc2c2cc(O)ccc12)OCO3` [Compound 22, N-(2,3-Methylenedioxy-6-hydroxy-phenanthr-9-ylcarbonyl)-L-proline] registered a melting point of 230 to 231 °C. In addition, in data set [6] (setting [9]), it took 39700 nM to reach half-maximal inhibition (IC50).
On to `COc1ccc2c(CN3CCC(CO)CC3)cc3cc4c(cc3c2c1)OCO4` [Compound 24a, N-(2,3-Methylenedioxy-6-methoxy-phenanthr-9-ylmethyl)-L-4-piperidinemethanol], for which the EC50 is 0.08 µM in data set [1] (setting [7]); 0.08 µM in data set [1] (setting [8]); 0.24 µM in data set [2]; 0.03 µM in data set [3]; 0.03 µM in data set [4]; 0.09 µM in data set [5].
`COc1ccc2c(CN3CCC[C@H]3CO)cc3cc4c(cc3c2c1)OCO4` [Compound 32, N-(2,3-Methylenedioxy-6-methoxy-phenanthr-9-ylmethyl)-L-prolinol] came in with a melting point of 138 to 139 °C. Besides, in data set [6] (setting [9]), the IC50 was 700 nM.
In turn, `COc1ccc2c(CN3CCCC[C@H]3C(=O)O)cc3cc(OC)c(OC)cc3c2c1` [Compound 37, N-(2,3,6-Trimethoxyphenanthr-9-ylmethyl)-L-2-piperidinecarboxylic acid] yielded an EC50 in data set [6] of 9700 nM.
Same read-out and setting: the same measure for `COc1ccc2c(CN3CCCC[C@H]3CO)cc3cc(OC)c(OC)cc3c2c1` [Compound 38, N-(2,3,6-Trimethoxyphenanthr-9-ylmethyl)-L-2-piperidinemethanol]: 6300 nM.
Regarding `COc1ccc(/C(=C\c2cc(OC)c(OC)cc2[N+](=O)[O-])C(=O)N2CCC[C@H]2C(=O)O)cc1` [Compound 39, 1-[3-(4,5-Dimethoxy-2-nitrophenyl)-2-(4-methoxyphenyl)-acryloyl]-pyrrolidine-2-carboxylic acid], half-maximal inhibition in data set [6] (Homo sapiens, Table 3) (IC50) was put at 80000 nM.
In data set [6] (Homo sapiens, Table 3), `COc1ccc(/C(=C\c2cc(OC)c(OC)cc2[N+](=O)[O-])CN2CCC[C@H]2C(=O)O)cc1` [Compound 40, 1-[3-(4,5-Dimethoxy-2-nitrophenyl)-2-(4-methoxyphenyl)-allyl]-pyrrolidine-2-carboxylic acid] had an IC50 of 45200 nM.
Same read-out and setting: the same measure for `COc1ccc(/C(=C\c2cc(OC)c(OC)cc2[N+](=O)[O-])CN2CCC[C@H]2CO)cc1` [Compound 41, {1-[3-(4,5-Dimethoxy-2-nitrophenyl)-2-(4-methoxyphenyl)-allyl]-pyrrolidin-2-yl}-methanol]: 11700 nM; for `COc1ccc(/C(=C\c2ccc(OC)c(OC)c2)CN2CCC[C@H]2CO)cc1` [Compound 42, {1-[3-(3,4-Dimethoxyphenyl)-2-(4-methoxyphenyl)allyl]-pyrrolidin-2-yl}-methanol]: 52200 nM.
Regarding `COc1cccc2c1C(=O)c1c(O)c3c(c(O)c1C2=O)C[C@@](O)(C(=O)CO)C[C@@H]3O[C@H]1C[C@H](N)[C@H](O)[C@H](C)O1` [Doxorubicin, reference compound], the EC50 in data set [1] (setting [10]) is 0.18 µM; in data set [1] (setting [11]) it was 0.18 µM; in data set [2] (Homo sapiens, 72 h), 0.18 µM; in data set [3] (Homo sapiens, DU-145, 72 h) it was 0.13 µM; in data set [4] (Homo sapiens, ZR-75-1, 72 h), 0.04 µM; in data set [5] (Homo sapiens, KBVIN, 72 h) it was over 4 µM.
Turning to `CC[C@H]1CN2CCc3cc(OC)c(OC)cc3[C@@H]2C[C@@H]1C[C@H]1NCCc2cc(OC)c(OC)cc21` [Emetine, reference compound], the EC50 in data set [1] (setting [10]) was 0.04 µM; in data set [1] (setting [11]) it was 0.04 µM; in data set [2] (Homo sapiens, 72 h), 0.04 µM; in data set [3] (Homo sapiens, DU-145, 72 h) it was 0.06 µM; in data set [4] (Homo sapiens, ZR-75-1, 72 h), 0.1 µM; in data set [5] (Homo sapiens, KBVIN, 72 h) it was over 2 µM.
